This is an account of results in ChEMBL document CHEMBL5696441 (Nat Chem Biol, 2011).

In assay [1] the target is 5'-AMP-activated protein kinase catalytic subunit alpha-2 (Homo sapiens) (UniProt P54646). Briefly: Inhibition of AMPK-alpha2 (unknown origin) assessed as remaining activity at 1 uM by Kinome scan method relative to control.
For assay [2], the target named is Cyclin-dependent kinase 11A (Homo sapiens) (UniProt Q9UQ88). Briefly: Inhibition of CDC2L2 (unknown origin) assessed as remaining activity at 1 uM by Kinome scan method relative to control.
In assay [3] the target is Mitogen-activated protein kinase kinase kinase 12 (Homo sapiens) (UniProt Q12852). Briefly: Inhibition of DLK (unknown origin) assessed as remaining activity at 1 uM by Kinome scan method relative to control.
The target in assay [4] is Serine/threonine-protein kinase STK11 (Homo sapiens) (UniProt Q15831). Briefly: Inhibition of LKB1 (unknown origin) assessed as remaining activity at 1 uM by Kinome scan method relative to control.
Assay [5] addresses Dual specificity mitogen-activated protein kinase kinase 6 (Homo sapiens) (UniProt P52564). Briefly: Inhibition of MEK6 (unknown origin) assessed as remaining activity at 1 uM by Kinome scan method relative to control.
Assay [6] addresses T1, Mitogen-activated protein kinase 12 (Homo sapiens) (UniProt P53778).
T1 sequence (whole entry): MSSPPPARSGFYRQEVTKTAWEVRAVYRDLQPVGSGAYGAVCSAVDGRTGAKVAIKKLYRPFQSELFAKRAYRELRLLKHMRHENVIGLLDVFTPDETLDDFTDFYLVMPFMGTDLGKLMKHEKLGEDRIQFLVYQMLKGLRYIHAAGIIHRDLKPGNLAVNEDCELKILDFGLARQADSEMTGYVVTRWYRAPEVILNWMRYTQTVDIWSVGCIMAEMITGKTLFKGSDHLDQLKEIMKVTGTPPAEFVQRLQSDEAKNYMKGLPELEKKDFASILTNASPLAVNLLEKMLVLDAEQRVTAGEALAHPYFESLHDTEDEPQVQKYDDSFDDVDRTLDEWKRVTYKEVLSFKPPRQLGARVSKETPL
Briefly: Inhibition of P38gamma (unknown origin) assessed as remaining activity at 1 uM by Kinome scan method relative to control.

The target in assay [7] is Phosphatidylinositol 4-kinase beta (Homo sapiens) (UniProt Q9UBF8). Briefly: Inhibition of PIK4CB (unknown origin) assessed as remaining activity at 1 uM by Kinome scan method relative to control.
The target in assay [8] is cAMP-dependent protein kinase catalytic subunit alpha (Homo sapiens) (UniProt P17612). Briefly: Inhibition of PKAC-alpha (unknown origin) assessed as remaining activity at 1 uM by Kinome scan method relative to control.
In assay [9] the target is Serine/threonine-protein kinase PLK3 (Homo sapiens) (UniProt Q9H4B4). Briefly: Inhibition of PLK3 (unknown origin) assessed as remaining activity at 1 uM by Kinome scan method relative to control.
The target of assay [10] is RAF proto-oncogene serine/threonine-protein kinase (Homo sapiens) (UniProt P04049). Briefly: Inhibition of RAF1 (unknown origin) assessed as remaining activity at 1 uM by Kinome scan method relative to control.
Assay [11] concerns the target Ribosomal protein S6 kinase alpha-4 (Homo sapiens) (UniProt O75676). Briefly: Inhibition of C-terminal kinase domain RPS6KA4 (unknown origin) assessed as remaining activity at 1 uM by Kinome scan method relative to control.
In assay [12] the target is Serine/threonine-protein kinase 35 (Homo sapiens) (UniProt Q8TDR2). Briefly: Inhibition of STK35 (unknown origin) assessed as remaining activity at 1 uM by Kinome scan method relative to control.
The target in assay [13] is T2, Testis-specific serine/threonine-protein kinase 1 (Homo sapiens) (UniProt Q9BXA7).
T2 sequence (whole entry): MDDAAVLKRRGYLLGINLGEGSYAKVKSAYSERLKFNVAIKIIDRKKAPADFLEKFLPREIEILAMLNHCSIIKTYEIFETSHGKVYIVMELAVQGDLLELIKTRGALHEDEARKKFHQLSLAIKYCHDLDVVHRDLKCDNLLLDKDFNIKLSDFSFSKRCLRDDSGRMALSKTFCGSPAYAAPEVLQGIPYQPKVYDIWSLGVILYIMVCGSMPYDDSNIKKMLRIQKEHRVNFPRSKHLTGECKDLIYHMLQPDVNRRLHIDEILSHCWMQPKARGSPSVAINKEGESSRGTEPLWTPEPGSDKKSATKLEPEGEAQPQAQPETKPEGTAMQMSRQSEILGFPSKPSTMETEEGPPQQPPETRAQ
Briefly: Inhibition of TSSK1B (unknown origin) assessed as remaining activity at 1 uM by Kinome scan method relative to control.

Assay [14] has as its target T3, Tyrosine-protein kinase TXK (Homo sapiens) (UniProt P42681).
T3 sequence (whole entry): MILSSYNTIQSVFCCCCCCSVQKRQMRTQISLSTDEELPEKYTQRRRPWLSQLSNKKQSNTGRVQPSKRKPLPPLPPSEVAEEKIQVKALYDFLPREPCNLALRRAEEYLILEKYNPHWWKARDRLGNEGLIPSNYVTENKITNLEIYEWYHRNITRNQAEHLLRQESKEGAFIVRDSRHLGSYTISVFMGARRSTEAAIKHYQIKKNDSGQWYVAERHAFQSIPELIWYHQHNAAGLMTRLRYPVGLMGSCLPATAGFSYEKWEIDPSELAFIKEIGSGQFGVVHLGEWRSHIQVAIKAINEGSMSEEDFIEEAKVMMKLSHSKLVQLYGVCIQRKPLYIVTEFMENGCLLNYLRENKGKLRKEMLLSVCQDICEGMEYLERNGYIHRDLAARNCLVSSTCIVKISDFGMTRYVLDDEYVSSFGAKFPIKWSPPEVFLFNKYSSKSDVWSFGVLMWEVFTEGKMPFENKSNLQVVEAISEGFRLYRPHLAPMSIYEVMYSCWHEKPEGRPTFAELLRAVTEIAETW
Briefly: Inhibition of TXK (unknown origin) assessed as remaining activity at 1 uM by Kinome scan method relative to control.

Assay [15] has as its target Non-receptor tyrosine-protein kinase TYK2 (Homo sapiens) (UniProt P29597). Briefly: Inhibition of TYK2 JH1 domain (unknown origin) assessed as remaining activity at 1 uM by Kinome scan method relative to control.
Assay [16] concerns the target Serine/threonine-protein kinase 25 (Homo sapiens) (UniProt O00506). Briefly: Inhibition of YSK1 (unknown origin) assessed as remaining activity at 1 uM by Kinome scan method relative to control.

Serine/threonine-protein kinase 25 (Homo sapiens), sequence (O00506 whole entry, looked up): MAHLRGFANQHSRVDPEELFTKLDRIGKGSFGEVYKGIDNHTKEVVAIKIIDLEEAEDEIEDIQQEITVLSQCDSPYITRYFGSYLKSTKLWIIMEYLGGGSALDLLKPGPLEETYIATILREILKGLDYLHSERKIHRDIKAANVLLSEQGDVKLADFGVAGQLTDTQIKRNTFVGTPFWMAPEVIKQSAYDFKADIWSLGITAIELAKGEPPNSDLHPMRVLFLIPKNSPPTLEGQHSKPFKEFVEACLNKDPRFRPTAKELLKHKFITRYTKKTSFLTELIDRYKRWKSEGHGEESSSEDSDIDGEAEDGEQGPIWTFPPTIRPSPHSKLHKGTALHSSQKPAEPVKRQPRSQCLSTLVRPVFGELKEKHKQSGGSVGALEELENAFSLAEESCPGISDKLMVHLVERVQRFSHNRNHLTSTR
Ribosomal protein S6 kinase alpha-4 (Homo sapiens), sequence (O75676 whole entry, looked up, the tested form may be a part): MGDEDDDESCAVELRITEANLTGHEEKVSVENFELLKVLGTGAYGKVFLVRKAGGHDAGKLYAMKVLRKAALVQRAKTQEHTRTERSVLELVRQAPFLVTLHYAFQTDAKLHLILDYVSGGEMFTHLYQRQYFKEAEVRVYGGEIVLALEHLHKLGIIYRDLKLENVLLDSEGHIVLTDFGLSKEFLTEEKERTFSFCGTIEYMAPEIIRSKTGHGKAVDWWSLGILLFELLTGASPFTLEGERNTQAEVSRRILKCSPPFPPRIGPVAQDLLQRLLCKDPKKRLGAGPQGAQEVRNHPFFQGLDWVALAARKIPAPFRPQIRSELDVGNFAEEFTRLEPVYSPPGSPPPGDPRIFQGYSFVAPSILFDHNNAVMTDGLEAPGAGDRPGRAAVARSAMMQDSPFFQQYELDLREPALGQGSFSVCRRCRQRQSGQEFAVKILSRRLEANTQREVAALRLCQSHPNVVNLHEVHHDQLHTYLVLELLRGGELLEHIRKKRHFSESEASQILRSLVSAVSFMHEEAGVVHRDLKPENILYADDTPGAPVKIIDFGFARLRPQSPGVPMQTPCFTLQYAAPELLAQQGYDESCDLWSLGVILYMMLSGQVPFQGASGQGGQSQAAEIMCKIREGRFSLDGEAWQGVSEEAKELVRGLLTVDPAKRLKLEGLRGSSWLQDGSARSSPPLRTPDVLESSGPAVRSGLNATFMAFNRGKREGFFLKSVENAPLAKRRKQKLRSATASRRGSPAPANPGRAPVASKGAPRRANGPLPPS
Non-receptor tyrosine-protein kinase TYK2 (Homo sapiens), sequence (P29597 whole entry, the tested form may be a part): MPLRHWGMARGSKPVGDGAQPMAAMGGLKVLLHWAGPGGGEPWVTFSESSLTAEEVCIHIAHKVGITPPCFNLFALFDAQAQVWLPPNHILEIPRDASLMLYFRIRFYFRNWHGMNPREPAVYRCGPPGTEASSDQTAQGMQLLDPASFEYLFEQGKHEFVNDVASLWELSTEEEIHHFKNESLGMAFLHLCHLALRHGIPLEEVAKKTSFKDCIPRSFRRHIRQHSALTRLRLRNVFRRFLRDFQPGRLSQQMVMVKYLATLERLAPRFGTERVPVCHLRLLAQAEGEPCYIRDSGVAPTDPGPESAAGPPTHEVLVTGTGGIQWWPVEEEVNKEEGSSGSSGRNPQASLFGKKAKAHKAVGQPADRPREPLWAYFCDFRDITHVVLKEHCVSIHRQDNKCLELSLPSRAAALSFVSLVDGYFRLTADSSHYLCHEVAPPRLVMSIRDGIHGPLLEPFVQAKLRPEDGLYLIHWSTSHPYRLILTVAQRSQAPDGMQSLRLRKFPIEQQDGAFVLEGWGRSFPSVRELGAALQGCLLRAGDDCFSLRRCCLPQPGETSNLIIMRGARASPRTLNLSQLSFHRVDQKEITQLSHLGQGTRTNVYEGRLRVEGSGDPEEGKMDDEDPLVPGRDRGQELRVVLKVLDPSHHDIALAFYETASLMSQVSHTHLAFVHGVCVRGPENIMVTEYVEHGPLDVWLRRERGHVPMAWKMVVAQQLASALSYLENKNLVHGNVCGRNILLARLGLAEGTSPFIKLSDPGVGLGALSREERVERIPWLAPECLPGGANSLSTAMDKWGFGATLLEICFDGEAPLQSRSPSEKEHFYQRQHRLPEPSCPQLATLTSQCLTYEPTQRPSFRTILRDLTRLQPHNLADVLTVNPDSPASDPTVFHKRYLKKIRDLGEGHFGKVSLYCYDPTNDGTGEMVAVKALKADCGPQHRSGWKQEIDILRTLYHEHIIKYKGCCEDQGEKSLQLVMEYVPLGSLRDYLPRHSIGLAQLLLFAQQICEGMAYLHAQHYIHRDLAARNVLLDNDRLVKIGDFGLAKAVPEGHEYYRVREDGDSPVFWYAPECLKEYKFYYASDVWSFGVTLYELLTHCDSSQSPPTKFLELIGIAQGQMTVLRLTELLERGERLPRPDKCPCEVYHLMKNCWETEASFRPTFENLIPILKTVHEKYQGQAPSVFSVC
Serine/threonine-protein kinase STK11 (Homo sapiens), sequence (Q15831 whole entry): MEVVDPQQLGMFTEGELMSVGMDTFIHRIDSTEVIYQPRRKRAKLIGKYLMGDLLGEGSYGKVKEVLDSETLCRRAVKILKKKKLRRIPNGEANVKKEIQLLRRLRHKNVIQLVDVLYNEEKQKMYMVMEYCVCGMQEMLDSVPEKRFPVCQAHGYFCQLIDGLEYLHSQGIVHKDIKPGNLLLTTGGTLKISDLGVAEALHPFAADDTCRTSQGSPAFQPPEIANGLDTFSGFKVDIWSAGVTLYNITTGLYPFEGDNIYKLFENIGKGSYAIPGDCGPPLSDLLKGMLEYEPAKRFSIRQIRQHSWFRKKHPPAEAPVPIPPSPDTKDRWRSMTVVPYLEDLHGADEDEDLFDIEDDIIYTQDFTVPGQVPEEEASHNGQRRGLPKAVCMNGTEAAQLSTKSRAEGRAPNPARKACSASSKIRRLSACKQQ
Phosphatidylinositol 4-kinase beta (Homo sapiens), sequence (Q9UBF8 2-816 limits assumed): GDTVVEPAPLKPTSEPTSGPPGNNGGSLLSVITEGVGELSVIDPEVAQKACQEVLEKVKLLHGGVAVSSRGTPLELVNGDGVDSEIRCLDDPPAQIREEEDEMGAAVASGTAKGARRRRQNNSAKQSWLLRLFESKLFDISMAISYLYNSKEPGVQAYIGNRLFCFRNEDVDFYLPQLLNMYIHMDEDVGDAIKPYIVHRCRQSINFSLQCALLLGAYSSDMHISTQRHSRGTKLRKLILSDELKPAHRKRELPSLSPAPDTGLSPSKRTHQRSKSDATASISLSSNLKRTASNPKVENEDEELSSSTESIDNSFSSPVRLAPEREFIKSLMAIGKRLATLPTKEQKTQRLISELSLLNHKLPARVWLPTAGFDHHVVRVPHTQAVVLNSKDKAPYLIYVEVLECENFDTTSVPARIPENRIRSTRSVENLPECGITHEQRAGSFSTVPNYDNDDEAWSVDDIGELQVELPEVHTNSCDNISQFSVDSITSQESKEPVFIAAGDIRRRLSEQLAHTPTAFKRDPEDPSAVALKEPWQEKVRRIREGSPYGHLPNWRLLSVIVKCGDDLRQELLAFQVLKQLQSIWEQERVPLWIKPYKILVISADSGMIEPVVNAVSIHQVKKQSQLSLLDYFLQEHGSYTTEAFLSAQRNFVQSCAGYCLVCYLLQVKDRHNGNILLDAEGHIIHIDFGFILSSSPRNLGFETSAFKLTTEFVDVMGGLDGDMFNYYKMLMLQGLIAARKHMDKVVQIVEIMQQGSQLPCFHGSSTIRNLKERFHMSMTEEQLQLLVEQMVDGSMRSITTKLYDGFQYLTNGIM
RAF proto-oncogene serine/threonine-protein kinase (Homo sapiens), sequence (P04049 whole entry, the tested form may be a part): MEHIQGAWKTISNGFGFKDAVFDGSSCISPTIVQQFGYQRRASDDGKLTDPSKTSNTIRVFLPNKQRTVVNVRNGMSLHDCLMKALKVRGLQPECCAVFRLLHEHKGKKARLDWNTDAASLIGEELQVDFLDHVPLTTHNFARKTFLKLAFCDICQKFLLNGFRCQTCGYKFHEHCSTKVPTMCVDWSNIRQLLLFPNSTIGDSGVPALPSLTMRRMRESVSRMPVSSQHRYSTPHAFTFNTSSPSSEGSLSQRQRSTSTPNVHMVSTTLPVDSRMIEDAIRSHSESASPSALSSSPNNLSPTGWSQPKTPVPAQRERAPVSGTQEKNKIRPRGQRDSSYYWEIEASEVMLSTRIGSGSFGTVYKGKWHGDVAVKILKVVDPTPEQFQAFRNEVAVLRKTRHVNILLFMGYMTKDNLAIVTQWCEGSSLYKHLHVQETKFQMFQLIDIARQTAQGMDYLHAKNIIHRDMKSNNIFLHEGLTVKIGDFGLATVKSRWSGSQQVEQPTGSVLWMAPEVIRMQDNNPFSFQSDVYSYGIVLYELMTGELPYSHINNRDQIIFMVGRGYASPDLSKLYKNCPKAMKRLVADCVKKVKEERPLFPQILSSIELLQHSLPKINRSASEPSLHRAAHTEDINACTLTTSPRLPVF
5'-AMP-activated protein kinase catalytic subunit alpha-2 (Homo sapiens), sequence (P54646 whole entry, looked up): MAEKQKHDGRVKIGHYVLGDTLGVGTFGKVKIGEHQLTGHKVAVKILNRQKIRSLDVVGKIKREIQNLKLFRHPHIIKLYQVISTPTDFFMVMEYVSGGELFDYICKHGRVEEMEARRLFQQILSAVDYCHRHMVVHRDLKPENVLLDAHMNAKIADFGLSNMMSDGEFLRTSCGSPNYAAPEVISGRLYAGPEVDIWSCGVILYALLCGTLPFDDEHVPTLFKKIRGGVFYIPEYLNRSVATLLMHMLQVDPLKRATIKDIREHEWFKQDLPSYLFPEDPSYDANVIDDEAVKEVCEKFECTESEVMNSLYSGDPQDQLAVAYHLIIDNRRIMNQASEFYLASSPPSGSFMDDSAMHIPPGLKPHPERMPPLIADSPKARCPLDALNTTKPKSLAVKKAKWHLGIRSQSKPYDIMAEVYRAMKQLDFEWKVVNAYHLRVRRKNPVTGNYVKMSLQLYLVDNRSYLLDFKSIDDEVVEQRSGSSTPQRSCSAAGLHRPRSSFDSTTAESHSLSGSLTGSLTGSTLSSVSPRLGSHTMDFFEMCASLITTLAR

On to `Nc1ccccc1Nc1ccc2c(c1)CCc1ccccc1C2=O`, for which the Activity in assay [1] was found to be 95%; in assay [2], 92%; in assay [3], 98%; in assay [4] it was 98%; in [5] it was 76%; in [6] it was 98%. In addition, the Activity in [7] is 91%; in assay [8], 83%; in assay [9] it was 97%; in [10], 93%; in assay [11], 85%; in assay [12], 80%. Further, the Activity in assay [13] was 95%; in [14] it was 90%; in assay [15], 83%; in assay [16], 92%.

Turning to `O=C1c2ccc(Nc3ccc(F)cc3F)cc2CCc2ccc(OC[C@H](O)CO)cc21` [Skepinone-L], the Activity was determined as 100% in assay [1]; 93% in assay [2]; 94% in [3]; 100% in assay [4]; 82% in [5]; 88% in assay [6]. Further, the Activity in assay [7] was 95%; in assay [8] it was 95%; in assay [9] it was 100%; in [10] it was 100%; in assay [11] it was 100%; in [12], 95%. The Activity in assay [13] is 84%; in assay [14], 86%; in assay [15], 58%; in assay [16] it was 100%.
